PMC11491004, “CHF6523 data suggest that the phosphoinositide 3-kinase delta isoform is not a suitable target for the management of COPD” (Respiratory Research, 2024)

Experiments:
[1] = COPD Assessment Test and rescue medication use; format: in vivo, human
Experimental: (§1) All assessment timings were based on the morning dose. Pre-dose on Days 1 and 28 of each treatment period, blood samples were taken for pharmacokinetic analyses, followed by forced oscillation (including slow vital capacity manoeuvres for inspiratory capacity [IC] and vital capacity [VC]), spirometry (forced expiratory volume in 1 s [FEV1] and forced vital capacity [FVC]), and the COPD Assessment Test (CAT). Blood samples were also taken up to 12 h post-dose on Days 1 and 28 for pharmacokinetic analyses, with blood samples for biomarker assessment pre-dose on Day 1 and 2 h post-dose on Day 28, and spirometry pre-dose on Days 20 and 24. Sputum was induced prior to each treatment period for baseline determination of biomarkers, and post-dose on Day 20 for collection of phosphatidylinositol (3,4,5)-trisphosphate (PIP3), and on Days 24 and 28 for collection of biomarkers.
(§2) Fold-change from baseline in cell counts, target biomarkers in sputum and blood, and PIP3 were log-transformed and analysed using an analysis of covariance (ANCOVA) model, with treatment, patient, and period as fixed effects, and baseline value as covariate. Changes from baseline in spirometry, forced oscillation and CAT endpoints were analysed using a similar ANCOVA model, but without log transformation. Rescue medication data were analysed using an analysis of variance model, including treatment, period and patient as fixed effects. Other data, including the proportion of days on which patients coughed and the cough VAS results, are presented descriptively only. Further details, including the transcriptomics, mass-spectrometry and Olink proteomics, bioinformatics and multi-omic data integration are in the supplement.

[2] = Forced oscillation and slow vital capacity manoeuvres; format: in vivo, human; conditions: Day 28
Experimental: as §1, §2
The Resmon PRO FULL device (MGC Diagnostics/Medisoft, St Paul, MN, USA) was used to evaluate the forced oscillometry endpoints. Patients in a sitting position and with their nose clipped supported their cheeks to reduce upper airway shunting while small amplitude pressure stimuli were applied during tidal breathing, with each manoeuvre performed in triplicate. The response of the respiratory system to this stimulation was used to derive respiratory mechanical impedance (Zrs), which comprises resistance (Rrs) and reactance (Xrs). In addition, the small amplitude pressure stimuli was also applied during execution of an expiratory slow vital capacity manoeuvre (SVC) to record inspiratory capacity (IC) and vital capacity (VC).
Central and peripheral airway mechanics were measured using a multi frequency stimulating waveform at 5, 11, and 19 Hz, to derive the following: […]

[3] = Parts 1 and 2, single and multiple ascending dose; some mild inhalation-related cough; cited from earlier work
[4] = in vivo
Experimental: Safety and tolerability were evaluated throughout the study in terms of the occurrence of adverse events, blood chemistry, haematology and urinalysis, vital signs, and 12-lead electrocardiograms. […] Throughout the study, patients were permitted to use salbutamol as rescue medication, but not within 6 h prior to any spirometry assessment – any rescue medication intake was also captured in the daily diary.
The safety set, used in the analysis of all safety variables, was all randomised patients who received at least one dose of study drug. […] Given the cross-over design, the inclusion of patients in the analysis sets was defined on a per-period basis.

proteins in sputum = test: Olink proteomics in sputum (Target 96 Inflammation and Target 48 Cytokine panels); format: in vivo, human
Experimental: For the proteomics evaluation, sputum samples were run on the Target 48 Cytokine panel, and the Target 96 Inflammation panel (Olink Protemics, Uppsala, Sweden). In the Target 48 Cytokine panel, 45 cytokines were quantified in terms of their absolute concentration. For the Target 96 Inflammation panel, 92 proteins involved in inflammation processes were evaluated, with the results expressed as Normalized Protein eXpression (NPX; the manufacturer’s arbitrary unit, in Log2 scale). […] In the statistical model, using sputum Target 96 and 48 data, change from pre-dose to post-dose expression were used as dependent variable, and patient, period, treatment and pre-dose expression as independent variable.

in-vivo guinea pig model = test: In-vivo guinea pig cough model

SMILES: C[C@@H](c1oc(=O)c2ccccc2c1-c1cccc(CN2CCN(C)CC2)c1)n1nc(-c2cncc(O)c2)c2c(N)ncnc21 [CHF6523]
- Rescue medication use, adjusted mean (95% CI) ([1]; 28-day treatment period): 1.69 (1.40, 1.99) Puffs/day
- Rescue medication use, adjusted mean difference CHF6523 vs placebo (95% CI) ([1]; 28-day treatment period): 0.28 (–0.14, 0.70); p=0.190 Puffs/day
- Rescue medication use: days with no use, adjusted mean (95% CI) ([1]; 28-day treatment period): 49.0 (40.3, 57.7) %
- Rescue medication use: days with no use, adjusted mean difference CHF6523 vs placebo (95% CI) ([1]; 28-day treatment period): –5.7 (–17.9, 6.6); p=0.354%
- COPD Assessment Test total score, adjusted mean difference CHF6523 vs placebo (95% CI) ([1]; Day 28): 0.6 (–0.7, 2.0); p=0.340
- Breaths where expiratory flow limitation was present, adjusted mean change from baseline (95% CI) [2]: 4.960 (–2.008, 11.928) %
- Breaths where expiratory flow limitation was present, adjusted mean difference CHF6523 vs placebo (95% CI) [2]: 6.482 (–3.182, 16.145); p=0.179%
- Inspiratory capacity, adjusted mean change from baseline (95% CI) [2]: –0.175 (–0.264, –0.085) (N=26) L
- Inspiratory capacity, adjusted mean difference CHF6523 vs placebo (95% CI) [2]: –0.062 (–0.191, 0.066); p=0.320 L
- Mean inspiratory flow, adjusted mean change from baseline (95% CI) [2]: 0.023 (0.006, 0.041) L/sec
- Reactance at 5 Hz, expiratory, adjusted mean change from baseline (95% CI) [2]: –0.336 (–0.801, 0.130) cmH2O/L/sec
- Reactance at 5 Hz, expiratory, adjusted mean difference CHF6523 vs placebo (95% CI) [2]: –0.284 (–0.919, 0.351); p=0.365 cmH2O/L/sec
- Reactance at 5 Hz, inspiratory, adjusted mean change from baseline (95% CI) [2]: –0.119 (–0.307, 0.068) cmH2O/L/sec
- Reactance at 5 Hz, inspiratory, adjusted mean difference CHF6523 vs placebo (95% CI) [2]: –0.141 (–0.399, 0.117); p=0.272 cmH2O/L/sec
- Reactance at 5 Hz, total, adjusted mean change from baseline (95% CI) [2]: –0.263 (–0.623, 0.097) cmH2O/L/sec
- Reactance at 5 Hz, total, adjusted mean difference CHF6523 vs placebo (95% CI) [2]: –0.237 (–0.729, 0.256); p=0.332 cmH2O/L/sec
- Reactance at 19 Hz, expiratory, adjusted mean change from baseline (95% CI) [2]: –0.025 (–0.226, 0.177) cmH2O/L/sec
- Reactance at 19 Hz, expiratory, adjusted mean difference CHF6523 vs placebo (95% CI) [2]: 0.079 (–0.198, 0.357); p=0.563 cmH2O/L/sec
- Reactance at 19 Hz, inspiratory, adjusted mean change from baseline (95% CI) [2]: –0.113 (–0.257, 0.031) cmH2O/L/sec
- Reactance at 19 Hz, inspiratory, adjusted mean difference CHF6523 vs placebo (95% CI) [2]: –0.072 (–0.270, 0.127); p=0.464 cmH2O/L/sec
- Reactance at 19 Hz, total, adjusted mean change from baseline (95% CI) [2]: –0.058 (–0.229, 0.112) cmH2O/L/sec
- Reactance at 19 Hz, total, adjusted mean difference CHF6523 vs placebo (95% CI) [2]: 0.027 (–0.208, 0.262); p=0.814 cmH2O/L/sec
- Resistance at 5 Hz minus resistance at 19 Hz, expiratory, adjusted mean change from baseline (95% CI) [2]: 0.112 (–0.080, 0.305) cmH2O/L/sec
- Resistance at 5 Hz minus resistance at 19 Hz, expiratory, adjusted mean difference CHF6523 vs placebo (95% CI) [2]: –0.112 (–0.377, 0.153); p=0.392 cmH2O/L/sec
- Resistance at 5 Hz minus resistance at 19 Hz, inspiratory, adjusted mean change from baseline (95% CI) [2]: 0.198 (0.075, 0.321) cmH2O/L/sec
- Resistance at 5 Hz minus resistance at 19 Hz, inspiratory, adjusted mean difference CHF6523 vs placebo (95% CI) [2]: 0.147 (–0.022, 0.317); p=0.085 cmH2O/L/sec
- Resistance at 5 Hz minus resistance at 19 Hz, total, adjusted mean change from baseline (95% CI) [2]: 0.158 (0.018, 0.299) cmH2O/L/sec
- Resistance at 5 Hz minus resistance at 19 Hz, total, adjusted mean difference CHF6523 vs placebo (95% CI) [2]: –0.008 (–0.203, 0.186); p=0.929 cmH2O/L/sec
- Resistance at 5 Hz, expiratory, adjusted mean change from baseline (95% CI) [2]: 0.112 (–0.149, 0.373) cmH2O/L/sec
- Resistance at 5 Hz, expiratory, adjusted mean difference CHF6523 vs placebo (95% CI) [2]: –0.118 (–0.485, 0.248); p=0.513 cmH2O/L/sec
- Resistance at 5 Hz, inspiratory, adjusted mean change from baseline (95% CI) [2]: 0.216 (0.066, 0.366) cmH2O/L/sec
- Resistance at 5 Hz, inspiratory, adjusted mean difference CHF6523 vs placebo (95% CI) [2]: 0.057 (–0.150, 0.264); p=0.574 cmH2O/L/sec
- Resistance at 5 Hz, total, adjusted mean change from baseline (95% CI) [2]: 0.172 (–0.013, 0.356) cmH2O/L/sec
- Resistance at 5 Hz, total, adjusted mean difference CHF6523 vs placebo (95% CI) [2]: –0.051 (–0.309, 0.207); p=0.686 cmH2O/L/sec
- Resistance at 19 Hz, expiratory, adjusted mean change from baseline (95% CI) [2]: –0.002 (–0.179, 0.176) cmH2O/L/sec
- Resistance at 19 Hz, expiratory, adjusted mean difference CHF6523 vs placebo (95% CI) [2]: –0.009 (–0.261, 0.242); p=0.939 cmH2O/L/sec
- Resistance at 19 Hz, inspiratory, adjusted mean change from baseline (95% CI) [2]: 0.021 (–0.094, 0.136) cmH2O/L/sec
- Resistance at 19 Hz, inspiratory, adjusted mean difference CHF6523 vs placebo (95% CI) [2]: –0.086 (–0.245, 0.072); p=0.272 cmH2O/L/sec
- Resistance at 19 Hz, total, adjusted mean change from baseline (95% CI) [2]: 0.016 (–0.125, 0.156) cmH2O/L/sec
- Resistance at 19 Hz, total, adjusted mean difference CHF6523 vs placebo (95% CI) [2]: –0.040 (–0.236, 0.157); p=0.683 cmH2O/L/sec
- Resonance frequency, adjusted mean change from baseline (95% CI) [2]: 0.167 (–0.960, 1.293) Hz
- Resonance frequency, adjusted mean difference CHF6523 vs placebo (95% CI) [2]: 0.106 (–1.434, 1.646); 0.888 Hz
- Respiratory rate, adjusted mean change from baseline (95% CI) [2]: 0.268 (–0.359, 0.895) breaths/min
- Respiratory rate, adjusted mean difference CHF6523 vs placebo (95% CI) [2]: 0.784 (–0.078, 1.646); 0.073 breaths/min
- Tidal expiratory flow limitation, adjusted mean change from baseline (95% CI) [2]: 0.214 (–0.130, 0.557) cmH2O/L/sec
- Tidal expiratory flow limitation, adjusted mean difference CHF6523 vs placebo (95% CI) [2]: 0.111 (–0.359, 0.582); p=0.630 cmH2O/L/sec
- Tidal volume, adjusted mean change from baseline (95% CI) [2]: 0.003 (–0.029, 0.036) L
- Tidal volume, adjusted mean difference CHF6523 vs placebo (95% CI) [2]: 0.011 (–0.034, 0.056); p=0.620 L
- Vital capacity, adjusted mean change from baseline (95% CI) [2]: –0.083 (–0.243, 0.076) (N=26) L
- Vital capacity, adjusted mean difference CHF6523 vs placebo (95% CI) [2]: –0.018 (–0.243, 0.207); p=0.871 L
- CHF6523–placebo difference in inspiratory flow ([2]; p=0.015): 29 mL/s
- Mean inspiratory flow, adjusted mean difference CHF6523 vs placebo (95% CI) ([2]; p=0.015): 0.029 (0.006, 0.052); p=0.015 L/sec
- Safety profile in healthy volunteers [3]: acceptable safety profile
- Adverse events leading to study discontinuation [4]: 6 (14.3%) Patients (%)
- Adverse events leading to study discontinuation: Cough [4]: 5 (11.9%) Patients (%)
- Adverse events: Abnormal product taste [4]: 14 (33.3%) Patients (%)
- Adverse events: COPD exacerbation [4]: 4 (9.5%) Patients (%)
- Adverse events: Chest discomfort [4]: 9 (21.4%) Patients (%)
- Adverse events: Dyspnoea [4]: 9 (21.4%) Patients (%)
- Adverse events: Headache [4]: 5 (11.9%) Patients (%)
- Adverse events: Increased sputum [4]: 5 (11.9%) Patients (%)
- CHF6523–placebo differences in the other safety evaluations [4]: no clinically relevant
- Serious adverse events [4]: 2 (4.8%) Patients (%)
- Serious treatment-related adverse events [4]: 0 Patients (%)
- Severe adverse events [4]: 11 (26.2%) Patients (%)
- Severe adverse events: Cough [4]: 7 (16.7%) Patients (%)
- Treatment-related adverse events [4]: 40 (95.2%) Patients (%)
- Treatment-related adverse events: Chest discomfort [4]: 9 (21.4%) Patients (%)
- Treatment-related adverse events: Cough [4]: 40 (95.2%) Patients (%)
- Treatment-related adverse events: Dyspnoea [4]: 9 (21.4%) Patients (%)
- Treatment-related adverse events: Headache [4]: 3 (7.1%) Patients (%)
- Treatment-related adverse events: Increased sputum [4]: 5 (11.9%) Patients (%)
- Treatment-related adverse events: Product taste abnormal [4]: 14 (33.3%) Patients (%)
- Fold change in the Olink panels: IL-1B (proteins in sputum): 0.771
- Fold change in the Olink panels: IL-6 (proteins in sputum): 1.516
- Fold change in the Olink panels: IL-8 (proteins in sputum): 1.151
- Fold change in the Olink panels: MCP-1 (proteins in sputum): 0.732
- Fold change in the Olink panels: TNF (proteins in sputum): 0.821
- Proteins significantly modulated by treatment, of the 74 evaluated (proteins in sputum; FDR < 0.05): none were significantly modulated by treatment
- Coughing in guinea pig, formulation with alternative salts (in-vivo guinea pig model; formulation changed to use alternative salts): ineffective in influencing cough
- Coughing in guinea pig (in-vivo guinea pig model; in-vivo guinea pig model, salt form used in the study): trigger coughing
